Measurements: US11597724B2, “Herbicidally active 3-phenylisoxazoline-5-carboxamides of tetrahydro and dihydrofuran carboxylic acids and esters” (Bayer Aktiengesellschaft, priority 2017, dated 2023)

Experiments:
Type in all cases: in vivo
Stellaria media [1] = test: Post-emergence herbicidal activity against STEME; conditions: dosage 320 g/ha, rated about 3 weeks after treatment; for pest or weed control at 320 g/ha: Stellaria media, 504 h
Outline: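 Greenhouse plants treated at one-leaf stage, 2–3 weeks after sowing, by spraying WP or EC formulations with 0.5% additive at 600 l/ha water. Visual rating about 3 weeks later versus untreated controls (100% = plants dead, 0% = like controls).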

Avena fatua [2] = test: Pre-emergence herbicidal activity against AVEFA; conditions: dosage 80 g/ha; for pest or weed control at 80 g/ha: Avena fatua, 504 h, read-out: Pre-emergence herbicidal activity against AVEVA in % (AVEFA)
Description: (§1) 1. Pre-Emergence Herbicidal Action and Crop Plant Compatibility Seeds of monocotyledonous and dicotyledonous weed plants and crop plants are placed in plastic or wood fiber pots and covered with soil. The compounds of the invention, formulated in the form of wettable powders (WP) or as emulsion concentrates (EC), are then applied onto the surface of the covering soil as aqueous suspension or emulsion with addition of 0.5% additive at a water application rate of 600 l/ha (converted). After the treatment, the pots are placed in a greenhouse and kept under good growth conditions for the trial plants. After about 3 weeks, the effect of the preparations is scored visually in comparison with untreated controls as percentages. For example, 100% activity=the plants have died, 0% activity=like control plants. AMARE: Amaranthus retroflexus AVEFA: Avena fatua

Pharbitis purpurea = test: Post-emergence herbicidal activity against PHBPU; conditions: dosage 320 g/ha, rated about 3 weeks after treatment; for pest or weed control at 320 g/ha: Ipomoea purpurea, 504 h
Outline: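 Greenhouse-grown plants sprayed post-emergence at the one-leaf stage, 2 to 3 weeks after sowing, with WP or EC formulations plus 0.5% additive at 600 l/ha water. Activity rated visually after about 3 weeks versus untreated controls (100% = plants dead, 0% = like control).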

Avena fatua [3] = test: Post-emergence herbicidal activity against AVEFA; conditions: dosage 320 g/ha, rated about 3 weeks after treatment; for pest or weed control at 320 g/ha: Avena fatua, 504 h
Outline: (§2)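 Greenhouse pots of sandy loam; plants sprayed at one-leaf stage, 2 to 3 weeks after sowing, with WP or EC formulations in water plus 0.5% additive at 600 l/ha. Activity rated visually after about 3 weeks against untreated controls (100% = plants dead, 0% = like control).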

Alopecurus myosuroides = test: Post-emergence herbicidal activity against ALOMY; conditions: dosage 320 g/ha, rated about 3 weeks after treatment; for pest or weed control at 320 g/ha: Alopecurus myosuroides, 504 h
Outline: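 Greenhouse-grown plants treated at one-leaf stage, 2 to 3 weeks after sowing, with WP or EC formulations sprayed as aqueous suspension/emulsion plus 0.5% additive at 600 l/ha. Activity rated visually about 3 weeks later versus untreated controls (100% = plants dead, 0% = like control).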

Veronica persica = test: Pre-emergence herbicidal activity against VERPE; conditions: dosage 80 g/ha; for pest or weed control at 80 g/ha: Veronica persica, 504 h
Description: as §1, with “STEME: Stellaria media VERPE: Veronica persica” for “AMARE: Amaranthus retroflexus AVEFA: Avena fatua”

Amaranthus retroflexus [4] = test: Pre-emergence herbicidal activity against AMARE; conditions: dosage 80 g/ha; for pest or weed control at 80 g/ha: Amaranthus retroflexus, 504 h
Description: as §1

Stellaria media [5] = test: Pre-emergence herbicidal activity against STEME; conditions: dosage 80 g/ha; for pest or weed control at 80 g/ha: Stellaria media, 504 h
Description: as §1, with “STEME: Stellaria media VERPE: Veronica persica” for “AMARE: Amaranthus retroflexus AVEFA: Avena fatua”

Amaranthus retroflexus [6] = test: Post-emergence herbicidal activity against AMARE; conditions: Amaranthus retroflexus, 504 h, dosage 320 g/ha, rated about 3 weeks after treatment
Outline: as §2

| Compound | pest or weed control at 320 g/ha (Stellaria media [1]) | pest or weed control at 80 g/ha (Avena fatua [2]) | pest or weed control at 320 g/ha (Pharbitis purpurea) | pest or weed control at 320 g/ha (Avena fatua [3]) | pest or weed control at 320 g/ha (Alopecurus myosuroides) | pest or weed control at 80 g/ha (Veronica persica) | pest or weed control at 80 g/ha (Amaranthus retroflexus [4]) | pest or weed control at 80 g/ha (Stellaria media [5]) | pest or weed control at 320 g/ha (Amaranthus retroflexus [6]) | Post-emergence herbicidal activity against STEME in % (Stellaria media [1]) | Pre-emergence herbicidal activity against AVEVA in % (AVEFA) (Avena fatua [2]) | Post-emergence herbicidal activity against PHBPU in % (Pharbitis purpurea) | Post-emergence herbicidal activity against AVEFA in % (Avena fatua [3]) | Post-emergence herbicidal activity against ALOMY in % (Alopecurus myosuroides) | Pre-emergence herbicidal activity against STEME in % (Stellaria media [5]) | Pre-emergence herbicidal activity against VERPE in % (Veronica persica) | Pre-emergence herbicidal activity against AMARE in % (Amaranthus retroflexus [4]) |
| --- | --- | --- | --- | --- | --- | --- | --- | --- | --- | --- | --- | --- | --- | --- | --- | --- | --- |
| COC(=O)[C@H]1C[C@@H](NC(=O)[C@@]2(C)CC(c3cc(F)cc(F)c3)=NO2)CO1 (mixture of isomers) [I-09, methyl cis-4-[[(5R)-3-(3,5-difluorophenyl)-5-methyl-4H-isoxazole-5-carbonyl]amino]tetrahydrofuran-2-carboxylate] | 90% | 90% | 90% | 90% | 90% | 90% | 80% | – | – | – | – | – | – | – | – | – | – |
| C=C[C@]1(C(=O)N[C@H]2CO[C@@H](C(=O)OC)C2)CC(c2cc(F)cc(F)c2)=NO1 (mixture of isomers) [I-10, methyl cis-4-[[(5S)-3-(3,5-difluorophenyl)-5-vinyl-4H-isoxazole-5-carbonyl]amino]tetrahydrofuran-2-carboxylate] | 90% | 100% | 90% | 100% | 100% | 100% | 90% | 100% | 80% | – | – | – | – | – | – | – | – |
| C=C[C@]1(C(=O)N[C@H]2CO[C@@H](C(=O)OCC)C2)CC(c2cc(F)cc(F)c2)=NO1 (mixture of isomers) [I-35, ethyl cis-4-[[(5S)-3-(3,5-difluorophenyl)-5-vinyl-4H-isoxazole-5-carbonyl]amino]tetrahydrofuran-2-carboxylate] | 90% | 100% | 90% | 100% | 100% | 100% | 100% | 100% | 90% | – | – | – | – | – | – | – | – |
| C=C[C@]1(C(=O)N[C@H]2CO[C@@H](C(=O)OC(C)C)C2)CC(c2cc(F)cc(F)c2)=NO1 (mixture of isomers) [I-36, isopropyl cis-4-[[(5S)-3-(3,5-difluorophenyl)-5-vinyl-4H-isoxazole-5-carbonyl]amino]tetrahydrofuran-2-carboxylate] | 90% | 100% | 80% | 90% | 90% | 100% | 100% | 100% | 90% | – | – | – | – | – | – | – | – |
| C=C[C@]1(C(=O)N[C@H]2CO[C@@H](C(=O)OCc3ccccc3)C2)CC(c2cc(F)cc(F)c2)=NO1 (mixture of isomers) [I-37, benzyl cis-4-[[(5S)-3-(3,5-difluorophenyl)-5-vinyl-4H-isoxazole-5-carbonyl]amino]tetrahydrofuran-2-carboxylate] | 90% | 100% | 90% | 100% | – | 100% | 100% | 100% | 80% | – | – | – | – | – | – | – | – |
| C=C[C@]1(C(=O)N[C@H]2CO[C@@H](C(=O)OC(C)(C)C)C2)CC(c2cc(F)cc(F)c2)=NO1 (mixture of isomers) [I-38, tert-butyl cis-4-[[(5S)-3-(3,5-difluorophenyl)-5-vinyl-4H-isoxazole-5-carbonyl]amino]tetrahydrofuran-2-carboxylate] | 90% | 90% | 90% | 90% | 90% | 100% | 100% | 100% | 100% | – | – | – | – | – | – | – | – |
| CC(C)(C)OC(=O)[C@H]1C[C@@H](NC(=O)C2(C)CC(c3cccc(F)c3)=NO2)CO1 (mixture of isomers) [I-33, tert-butyl cis-4-[[(5RS)-3-(3-fluorophenyl)-5-methyl-4H-isoxazole-5-carbonyl]amino]tetrahydrofuran-2-carboxylate] | 90% | – | 90% | 100% | 100% | 100% | – | 100% | 90% | – | – | – | – | – | – | – | – |
| COC(=O)[C@H]1C[C@@H](NC(=O)C2(C)CC(c3cc(F)cc(F)c3)=NO2)CO1 (relative stereo) [I-01, methyl cis-4-[[3-(3,5-difluorophenyl)-5-methyl-4H-isoxazole-5-carbonyl]amino]tetrahydrofuran-2-carboxylate] | 90% | 90% | 90% | 100% | 100% | 80% | – | 90% | 80% | – | – | – | – | – | – | – | – |
| COC(=O)[C@H]1C[C@@H](NC(=O)C2(OC)CC(c3cc(C)cc(Br)c3)=NO2)CO1 (relative stereo) [I-08, methyl cis-4-[[3-(3-bromo-5-methylphenyl)-5-methoxy-4H-isoxazole-5-carbonyl]amino]tetrahydrofuran-2-carboxylate] | – | – | 90% | 100% | – | 90% | – | – | – | – | – | – | – | – | – | – | – |
| COC(=O)C1COCC1NC(=O)C1(C)CC(c2cc(F)cc(F)c2)=NO1 (centres unmarked) [I-19, methyl 4-[[3-(3,5-difluorophenyl)-5-methyl-4H-isoxazole-5-carbonyl]amino]tetrahydrofuran-3-carboxylate] | 90% | 80% | 80% | 100% | 90% | 90% | – | 80% | 90% | – | – | – | – | – | – | – | – |
| COC(=O)C1COCC1NC(=O)C1(OC)CC(c2cc(F)cc(F)c2)=NO1 (centres unmarked) [I-27, methyl 4-[[3-(3,5-difluorophenyl)-5-methoxy-4H-isoxazole-5-carbonyl]amino]tetrahydrofuran-3-carboxylate] | 80% | 90% | 80% | 90% | 90% | 90% | 90% | 90% | – | – | – | – | – | – | – | – | – |
| COC(=O)C1COCC1NC(=O)C1(OC)CC(c2cc(Cl)cc(Cl)c2)=NO1 (centres unmarked) [I-29, methyl 4-[[3-(3,5-dichlorophenyl)-5-methoxy-4H-isoxazole-5-carbonyl]amino]tetrahydrofuran-3-carboxylate] | 80% | 80% | 80% | 90% | 90% | 100% | 90% | 90% | – | – | – | – | – | – | – | – | – |
| COC(=O)C1CC(NC(=O)C2(C(C)(F)F)CC(c3cc(F)cc(F)c3)=NO2)CO1 (centres unmarked) [I-49] | – | – | – | – | – | – | – | – | – | 90% | 100% | 80% | 80% | 90% | 100% | 100% | 100% |
